The text below walks through data of patent US20200268793A1, “METHODS AND COMPOSITIONS FOR ALLEVIATING CYTOKINE RELEASE SYNDROME” (MEMORIAL SLOAN-KETTERING CANCER CENTER, priority 2017, published 2020).

One assay concerns cognate murine receptor. Particulars: cytokines of human origin, cited from earlier work.
The subject of assay [1] is SCID-beige mice with established intraperitoneal Raji tumors. In words: CRS mouse model: survival, weight change, toxicity and histopathology after CAR T cell transfer. The class given is in vivo. Particulars: tumor bearing mice after 1928z CAR T cell transfer; for Toxicity as witnessed by weight loss (percent weight change) under treatment: 5 mg/kg intraperitoneally once per day; for CRS-associated mortality (percent survival) under treatment: agent given intraperitoneally once per day for 5 days. On the procedure:
Mice were treated under a protocol approved by the MSKCC Institutional Animal Care and Use Committee. CRS Model: 6-8 week old female C.B.Igh-1b/GbmsTac-Prkdc^scidLyst^bgN7 (SCID-beige) mice (Taconic) were intraperitoneally injected with 3 million Raji-GFP-Fluc cells and tumors were left to grow for 20 days. Tumor burden was evaluated by in vivo bioluminescent imaging two days prior to CAR T cell transfer. Outliers, mice with inconsistently higher or lower tumor burdens were excluded from the experiment. Mice were injected intraperitoneally with 30 million CAR^+ T cells in PBS supplemented with 2% Human Serum. Control mice received PBS supplemented with 2% Human Serum. Stress test model: 6-8 week-old male NOD.Cg-Prkdc^scidIl2rg^tmWjl/SzJ (NSG) mice (Jackson Laboratory) were inoculated with 0.5×10^6 NALM-6-GFP-Fluc cells by tail vein injection followed by with 0.2×10^6 or with 0.5×10^6 CAR T cells four days later. Bioluminescence imaging utilized the Xenogen IVIS Imaging System (Xenogen) with Living Image software (Xenogen) for acquisition of imaging datasets. Tumor Burden was assessed as previously described^34.
(§1) Anakinra was administered intraperitoneally at 30 mg/kg once per day for 5 days, starting 5 hours prior to CAR T cell transfer. Anti-murine IL-6 (clone MP5-20F3, BioXcell) and anti-murine IL-6R (clone 15A7, BioXcell) were administered intraperitoneally once per day at 25 mg/kg for the first dose and 12.5 mg/kg for subsequent doses for 5 days starting 5 hours prior to CAR T cell transfer. L-NIL (Enzo Life Sciences) or 1400W (Cayman Chemical) were administered intraperitoneally at 5 mg/kg once per day for 5 days starting 5 hours prior to CAR T cell transfer.
Mice were transferred to the pathology core facility of Memorial Sloan Kettering where they were sacrificed by cardiac puncture. Tissues obtained were fixed in 10% buffered formalin and were further processed for H&E staining and immunohistochemistry.
To model CAR T cell-induced CRS, conditions were established whereby a high number of CD19 CAR T cells engaged a high tumor burden and yielded overt toxicity within 2-3 days^2-5 (FIG. 1A). […] The overall levels of these cytokines, including mIL6, mCCL2, mG-CSF, hIL-3, hIFN-γ, hGM-CSF, hIL-2 correlated strongly with CRS severity and survival (FIGS. 1E-1L and 1S). The xenogeneic nature of this model was taken advantage of to discern the origin of these cytokines and chemokines. Thus, IL-6 was produced by endogenous murine cells while IFN-γ and GM-CSF were products of the CART cells. mIL6 and hIL6.^12, were not elevated in the absence of CART cells (FIGS. 1M-1O, 1T and 5D), establishing that this cardinal feature of CRS was the result a multicellular interaction and not the outcome of a T cell-tumor cell interaction.

The subject of the next assay is iNOS. In words: iNOS expression in peritoneal macrophages by intracellular flow cytometry in CRS mice. The format is in vivo, mouse. As to conditions: 18 hours post CAR T cell transfer. On the procedure: as §1
Antibodies were titrated for optimal staining. The following fluorophore conjugated antibodies were used (“h” prefix denotes anti-human, “m” prefix denotes anti-mouse): hCD4 BUV395 (clone RPA-T4, BD), hCD8 PE-Cy7 (clone SK1, eBioscience), hCD3 PerCP-efluor710 (clone OKT3, eBioscience), hCD19 BUV737 (clone SJ25C1, BD), hLNGFR BB515 (clone C40-1457, BD), mF4/80 BV421 and BV711 (clone T45-2342, BD), mLy6C Alexa Fluor 647 and BV786 (clone ER-MP20, AbdSerotec and clone HK1.4, BioLegend respectively), mMHCII BB515 (clone 2G9, BD), mCD11c BV650 (clone N418, BioLegend), mLy6G APC-Fire750 (clone 1A8, BioLegend), mSIGLEC-F PE-CF594 (clone E50-2440, BD), mCD40 BV786 (clone 3/23, BD), mCD40L PE (clone MR1, BD), mCD11b BUV395 (clone M1/70, BD), mNOS2 PE-Cy7 (clone CXNFT, eBioscience). […]
(In general: Flow cytometry measures light scatter and fluorescence of single cells or particles in a stream.)

A further assay concerns cognate human receptor. Particulars: cytokines of murine origin; cited from earlier work.

Entries after “also recorded” stand apart in the source; their conditions may differ. Like-named read-outs stand apart in the source and are kept apart here.

For the molecule GM-CSF: cytokine of human origin, in the assay on cognate murine receptor, the “Human on mouse (active on the cognate murine receptor)” value (from here on “Human on mouse”) is given as “lack of activity; also recorded: No^39”. Take IL-10: cytokine of human origin: in the assay on cognate murine receptor, the “Human on mouse” value was “Yes^40”.

As for IFNg: cytokine of human origin, the figures for the “Human on mouse” value with cognate murine receptor and in the assay on cognate murine receptor (listed as human IFN-γ) were “No^38” and “lack of activity”, respectively. For the molecule IL-8: cytokine of human origin, the “Human on mouse” value with cognate murine receptor was “Yes^40”.

As to “human CD40L: CD40 ligand, mainly expressed by T cells”, in the assay with cognate murine receptor, the “Human on mouse” value was “does not functionally interact”. In the case of `CC(=N)NCCCC[C@H](N)C(=O)O` [L-NIL, L-N6-(1-iminoethyl)lysine], in assay [1], the “Toxicity as witnessed by weight loss (percent weight change) under treatment” value is “robust reversal of toxicity”.

As to `CC(=N)NCc1cccc(CN)c1` [1400W], in assay [1], the “Toxicity as witnessed by weight loss (percent weight change) under treatment” value is reported as “reversed toxicity” and the “CRS-associated mortality (percent survival) under treatment” value was “significantly prevented mortality”.

In the case of IL-13: cytokine of human origin, the “Human on mouse” value in the assay on cognate murine receptor is recorded as “Yes^40”.

“Anakinra: IL-1Ra polypeptide used for IL-1 blockade”: the “CRS-associated mortality (percent survival) under treatment” value in assay [1] is given as “completely abrogated CRS-related mortality”. Further, the “iNOS+ macrophage fraction” value with iNOS was “similarly reduced”.

As to IL-17: cytokine of human origin, the “Human on mouse” value in the assay with cognate murine receptor is “Yes^40”. As for TNFa, the figures for the “Human on mouse” value in the assay on cognate murine receptor and in the assay on cognate murine receptor (listed as Human TNF-α) were “Partial^40” and “can signal through the murine p55 TNF receptor but not the p75 TNF receptor”, respectively.

B1: IL-6: cytokine of murine origin (protein, UniProt P08505 25-211, looked up)
Interleukin-6: FPTSQVRRGDFTEDTTPNRPVYTTSQVGGLITHVLWEIVEMRKELCNGNSDCMNNDDALAENNLKLPEIQRNDGCYQTGYNQEICLLKISSGLLEYHSYLEYMKNNLKDNKKDKARVLQRDTETLIHIFNQEVKDLHKIVLPTPISNALLTDKLESQKEWLRTKTIQFILKSLEEFLKVTLRSTRQT
For the molecule B1, the “Mouse on human (active on the cognate human receptor)” value (from here on “Mouse on human”) in the assay with cognate human receptor is “No^39”.

B2: IL-5: cytokine of murine origin (protein, UniProt P04401 21-133, looked up)
Interleukin-5: MEIPMSTVVKETLTQLSAHRALLTSNETMRLPVPTHKNHQLCIGEIFQGLDILKNQTVRGGTVEMLFQNLSLIKKYIDRQKEKCGEERRRTRQFLDYLQEFLGVMSTEWAMEG
In the case of B2, the “Mouse on human” value with cognate human receptor was “Yes^40”.

B3: IL-15: cytokine of murine origin (protein, UniProt P48346 49-162, looked up)
Interleukin-15: NWIDVRYDLEKIESLIQSIHIDTTLYTDSDFHPSCKVTAMNCFLLELQVILHEYSNMTLNETVRNVLYLANSTLSSNKNVAESGCKECEELEEKTFTEFLQSFIRIVQMFINTS
With B3, the “Mouse on human” value in the assay on cognate human receptor is recorded as “Yes^39”.
